Source: patent US20090258069A1, “Delivery of LFA-1 antagonists to the gastrointestinal system” (priority 2008, published 2009)
Where “and” joins values, the source holds several entries; their conditions need not be identical. Identical values can stand only once.

Columns and labels:
[1] = tested on: Keratoconjunctivitis Sicca (KCS); assay: Canine keratoconjunctivitis sicca (KCS) study, Schirmer tear test and conjunctival biopsy; assay type: in vivo, dog; settings: for Schirmer Tear Test Results (OD), Mean: Dog #1 not included; for Schirmer Tear Test Results (OS), Mean: Dog #7 not included; for Schirmer Tear Test Results (OS), individual dogs: left eye; for Schirmer Tear Test Results (OD), individual dogs: right eye
Excerpt: If dogs had been treated with topical CsA or tacrolimus in the previous six months, they were not enrolled. […] Animals were subjected to an ocular examination once during the initial visit and during five visits over sixteen weeks of the study (Weeks, 2, 4, 8, 12 and 16). The last OE was approximately four weeks after the last dose of Compound 12 and after one month of CsA treatment. The adnexa and anterior portions of both eyes were examined using an indirect opthalmoscope. The eyes were dilated with a mydriatic when applicable, to allow evaluation of the lens and fundus, including the retina. An evaluation using a modified McDonald-Shaddock scoring system was performed in conjunction with the slitlamp ocular examinations at each interval. […] One strip of STT paper was used for each eye for each interval. […] The length, in mm, of wetting below the notch of the paper was recorded. Conjunctival biopsies were taken at the initial (pretreatment) visit and the Week 12 visit. The second biopsy was taken more lateral (approx. 1 mm) to the initial biopsy. Following appropriate preparation a small conjunctival biopsy was taken from the ventral fornix of each eye.

rats = assay: Respiratory function in rats, single IV bolus, head-out plethysmograph; assay type: in vivo, rat; settings: any dose
[2] = Week 1, 1% solution (Formulation 15) 0.35 mg/eye TID, one grid row per dog
[3] = Week 16, Compound 12 stopped at week 12, then 4 weeks CsA 0.2% ointment TID
[4] = Weeks 1-12 of Compound 12 administration

CS(=O)(=O)c1cccc(C[C@H](NC(=O)c2c(Cl)cc3c(c2Cl)CCN(C(=O)c2ccc4ccoc4c2)C3)C(=O)O)c1 [Compound 12]
Schirmer Tear Test Results (OD), Mean ([1]; Week 1): 5.5 mm
Schirmer Tear Test Results (OS), Mean ([1]; Week 1): 4.2 mm
Schirmer Tear Test Results (OS), individual dogs [1, 2]: 9 mm (2×) and 18 mm and 0 mm (3×) and 7 mm
Schirmer Tear Test Results (OD), individual dogs [1, 2]: 8 mm (2×) and 6 mm (2×) and 15 mm and 0 mm and 5 mm
Schirmer Tear Test Results (OD), Mean ([1]; Week 2): 7.8 mm
Schirmer Tear Test Results (OS), Mean ([1]; Week 2): 4.8 mm
Schirmer Tear Test Results (OS), individual dogs ([1]; Week 2, 1% solution TID): 4 mm and 0 mm (2×) and 14 mm and 3 mm and 8 mm
Schirmer Tear Test Results (OD), individual dogs ([1]; Week 2, 1% solution TID): 10 mm and 2 mm (2×) and 18 mm and 11 mm (3×)
Schirmer Tear Test Results (OD), Mean ([1]; Week 4): 7.0 mm
Schirmer Tear Test Results (OS), Mean ([1]; Week 4): 6.7 mm
Schirmer Tear Test Results (OS), individual dogs ([1]; Week 4, 1% solution TID): 14 mm (2×) and 0 mm (2×) and 7 mm and 5 mm
Schirmer Tear Test Results (OD), individual dogs ([1]; Week 4, 1% solution TID): 15 mm and 2 mm and 12 mm and 0 mm and 5 mm and 10 mm (2×)
Schirmer Tear Test Results (OD), Mean ([1]; Week 8): 8.5 mm
Schirmer Tear Test Results (OS), Mean ([1]; Week 8): 6.5 mm
Schirmer Tear Test Results (OS), individual dogs ([1]; Week 8, 1% solution TID): 8 mm (2×) and 19 mm and 0 mm and 2 mm and 17 mm and 6 mm
Schirmer Tear Test Results (OD), individual dogs ([1]; Week 8, 1% solution TID): 17 mm and 1 mm and 16 mm and 8 mm and 7 mm (2×) and 11 mm
Schirmer Tear Test Results (OD), Mean ([1]; Week 12): 8.8 mm
Schirmer Tear Test Results (OS), Mean ([1]; Week 12): 8.7 mm
Schirmer Tear Test Results (OS), individual dogs ([1]; Week 12, 1% solution TID): 8 mm (2×) and 18 mm and 3 mm and 7 mm and 15 mm and 4 mm
Schirmer Tear Test Results (OD), individual dogs ([1]; Week 12, 1% solution TID): 16 mm and 0 mm and 13 mm (2×) and 8 mm and 7 mm and 9 mm
Schirmer Tear Test Results (OS), Mean ([1]; Week 16 (after 4 weeks CsA)): 11.0 mm
Schirmer Tear Test Results (OS), individual dogs [1, 3]: 17 mm and 18 mm and 3 mm and 5 mm and 16 mm and 7 mm and 19 mm
Schirmer Tear Test Results (OD), individual dogs [1, 3]: 18 mm and 12 mm (2×) and 8 mm (3×) and 22** mm
Maximum-Minimum Analysis, maximal change in STT, OD, per dog [1, 4]: 3 mm and 8 mm (3×) and −4 mm and 5 mm
Maximum-Minimum Analysis, maximal change in STT, OS, per dog [1, 4]: 7 mm (2×) and 11 mm and 3 mm and 10 mm and 6 mm
Histopathological evaluation of conjunctival biopsies before and after treatment ([1]; pretreatment vs Week 12): attenuation of lymphocyte accumulation
Schirmer test scores over pretreatment ([1]; week 12): Significant improvement
respiratory function (tidal volume, respiration rate, minute volume) (rats): No adverse changes
